Data on 12 compounds can be found in ChEMBL document CHEMBL2062500, “Anti-inflammatory sesquiterpene lactones from the flower of Vernonia cinerea” (Bioorg Med Chem Lett, 2012).

By IC50 is commonly meant the concentration that gives 50% inhibition. As usually defined, the inhibition is the relative decrease from the control value, in per cent.

The nature of data set [1]: (§1) Inhibition of TNFalpha-induced NF-kappaB activity expressed in human HEK 293 cells after 6 hrs by luciferase reporter gene assay. It is filed as cell-based. As to conditions: HEK293, 6 h.
Data set [2] is described as follows: Cytotoxicity in human HEK293 cells assessed as survival at 50 uM. It is filed as cell-based. To be noted: read-out: Survival.
Data set [3] has as its system HEK293. In words: Inhibition of TNFalpha-induced NF-kappaB activity expressed in human HEK 293 cells at 50 uM after 6 hrs by luciferase reporter gene assay. It is filed as cell-based. For orientation: A reporter such as luciferase makes a cellular process visible.
The test system of data set [4] is RAW264.7. In words: Antiinflammatory activity against LPS-induced NO production in mouse RAW264.7 cells assessed as reduction in nitrite level at 50 uM preincubated for 15 mins prior to LPS treatment by Griess method. It counts as functional.
Data set [5] has as its system RAW264.7. Put plainly: Antiinflammatory activity against LPS-induced NO production in mouse RAW264.7 cells assessed as reduction in nitrite level preincubated for 15 mins prior to LPS treatment by Griess method. It counts as functional, cell-based. On the technique in general: Nitrite, measured by Griess reagent, commonly stands in for NO production.
Data set [6] is described as follows: Cytotoxicity in mouse RAW264.7 cells assessed as cell survival at 50 uM. As to conditions: read-out: Survival. It counts as cell-based.
The test system of data set [7] is HEK293. The data set is described as §1. It counts as cell-based.

The structures appear in SMILES notation. Calls of active or inactive are those of the source. The calls are words filed in the database; no cut-off is given here.

As to `Cc1ccc(S(=O)(=O)N[C@@H](Cc2ccccc2)C(=O)CCl)cc1` [TPCK], half-maximal inhibition in data set [1] (IC50) required 3.8 µM.

Consider `C/C=C(\C)C(=O)O[C@H]1C[C@@H](C)[C@]2(OC)CC[C@](C)(/C=C3/OC(=O)C(COC(C)=O)=C31)O2`, for which the viability at 50 µM in data set [2] was 16.5%; in data set [6], 5.4%. This compound had an inhibition in data set [3] of 97.6%. Moreover, in data set [4], the inhibition at 50 µM was determined as 99%. Also, the half-maximal inhibitory concentration (IC50) was 1.2 µM in data set [5] and 12.8 µM in data set [1].

As for `CO[C@]12CC[C@](C)(/C=C3/OC(=O)C(CO)=C3[C@@H](O)C[C@H]1C)O2`, the viability at 50 µM was found to be 91.9% in data set [2] and 134% in data set [6]. For the same compound, the inhibition in data set [3] was 33.4%. Further, in data set [4], the inhibition at 50 µM worked out at 84.2%. In data set [5], the half-inhibitory concentration (IC50) amounted to 28.1 µM. For the same compound, the inhibition result in data set [7] is “inactive”.

In the case of `CNC(=N)NCCC[C@H](N)C(=O)O`, in data set [5], the IC50 came to 25.1 µM.

As to `Cc1ccc(S(=O)(=O)/C=C/C#N)cc1`, in data set [1], the 50% inhibitory concentration (IC50) came to 2 µM.

`C/C=C(\C)C(=O)O[C@H]1C[C@@H](C)[C@]2(O)CC[C@](C)(/C=C3/OC(=O)C(CO)=C31)O2` (relative stereo): the viability at 50 µM is 87.6% in data set [2] and 32.2% in data set [6]. In addition, in data set [3], the inhibition came out at 98.6%. Moreover, the inhibition at 50 µM in data set [4] is 99.8%. Moreover, the IC50 in data set [5] came to 5.7 µM; in data set [1] it was 3.1 µM.

On to `CC(=O)OCC1=C2/C(=C\[C@@]3(C)CC[C@](O)(O3)[C@H](C)C[C@@H]2O)OC1=O`, for which the viability at 50 µM in data set [2] came out at 55%; in data set [6] it was 18%. For the same compound, in data set [3], the inhibition is 90.3%. The inhibition at 50 µM in data set [4] is 99.3%. Further, the IC50 in data set [5] came to 2.7 µM; in data set [1], 10.2 µM.

`C[C@@H]1C[C@H](O)C2=C(CO)C(=O)O/C2=C/[C@@]2(C)CC[C@]1(O)O2`: the results for the viability at 50 µM in data set [2] and in data set [6] were 100% and 121%, respectively. The compound also displayed an inhibition in data set [3] of 65.6%. For the same compound, the inhibition at 50 µM in data set [4] came to 82.6%. In addition, the half-maximal inhibitory concentration (IC50) in data set [5] turned out to be 24.7 µM; in data set [1] it was 1.9 µM.

In the case of `C=C(C)C(=O)O[C@H]1C[C@@H](C)[C@]2(OC)CC[C@](C)(/C=C3/OC(=O)C(COC(C)=O)=C31)O2`, the viability at 50 µM in data set [2] was 39.1%; in data set [6], 6.3%. Further, the inhibition in data set [3] was 94.2%. For the same compound, the inhibition at 50 µM in data set [4] came to 98.8%. Moreover, the IC50 in data set [5] amounted to 1.5 µM; in data set [1], 13.6 µM.

With `C/C=C(\C)C(=O)O[C@H]1C[C@@H](C)[C@]2(O)CC[C@](C)(/C=C3/OC(=O)C(COC(C)=O)=C31)O2`, the values for the viability at 50 µM in data set [2] and in data set [6] were 102% and 31.1%, respectively. In addition, the inhibition in data set [3] came out at 99.6%. Also, the inhibition at 50 µM in data set [4] came out at 98%. For the same compound, the IC50 worked out at 2 µM in data set [5] and 0.6 µM in data set [1].

Take `C/C=C(\C)C(=O)O[C@H]1C[C@@H](C)[C@]2(OC)CC[C@](C)(/C=C3/OC(=O)C(CO)=C31)O2`: the viability at 50 µM in data set [2] amounted to 9.3%; in data set [6], 15.6%. The inhibition in data set [3] turned out to be 94.1%. Moreover, the inhibition at 50 µM in data set [4] stood at 99.8%. The IC50 in data set [5] came to 2.4 µM; in data set [1], 1.6 µM.

As to `C=C(C)C(=O)O[C@H]1C[C@@H](C)[C@]2(O)CC[C@](C)(/C=C3/OC(=O)C(COC(C)=O)=C31)O2`, the figures for the viability at 50 µM in data set [2] and in data set [6] were 95.1% and 31.1%, respectively. This compound returned an inhibition in data set [3] of 95.8%. Also, in data set [4], the inhibition at 50 µM amounted to 99.2%. In addition, the IC50 in data set [5] worked out at 6.6 µM; in data set [1] it was 5.2 µM.
